# Source: ChEMBL document CHEMBL5523693, “Exploration of the P1 residue in 3CL protease inhibitors leading to the discovery of a 2-tetrahydrofuran P1 replacement” (Bioorg Med Chem, 2024)
# Where a SMILES comes first, the peptide text is derived from it. [ ]: non-standard residue; d: D form. The star is where a group is joined. Phe(4-F) = N[C@@H](Cc1ccc(F)cc1)C(=O)O; Cbz = O=C(OCc1ccccc1)*
# System: not listed separately
# Assay: cells
# Details: Betacoronavirus 1, MRC5, read-out: pEC50 (converted)
# Description: Antiviral activity against SARS-CoV-2 OC43 infected in human MRC5 cells assessed as inhibition of bacterial growth
row,Structure (SMILES),EC50 [µM]
1,CSCC[C@@H](C=O)NC(=O)[C@H](CC(C)C)NC(=O)[C@H](Cc1ccc(F)cc1)NC(=O)OCc1ccccc1 (Cbz-[Phe(4-F)]-Leu-Met-aldehyde),1
2,CC(C)C[C@H](NC(=O)[C@H](Cc1ccc(F)cc1)NC(=O)OCc1ccccc1)C(=O)NC(C=O)CCF (mixture of isomers),> 50.1
3,CC(C)C[C@H](NC(=O)[C@H](Cc1ccc(F)cc1)NC(=O)OCc1ccccc1)C(=O)NC(C=O)CC(F)F (mixture of isomers),> 1.58
4,CC(C)C[C@H](NC(=O)[C@H](Cc1ccc(F)cc1)NC(=O)OCc1ccccc1)C(=O)NC(C=O)Cc1ccccn1 (mixture of isomers),1.58
5,CC(C)C[C@H](NC(=O)[C@H](Cc1ccc(F)cc1)NC(=O)OCc1ccccc1)C(=O)NC(C=O)CC(F)(F)F (mixture of isomers),> 1.26
6,CC(C)C[C@H](NC(=O)[C@H](Cc1ccc(F)cc1)NC(=O)OCc1ccccc1)C(=O)NC(C=O)Cc1cccnc1 (mixture of isomers),> 10
7,CC(C)C[C@H](NC(=O)[C@H](Cc1ccc(F)cc1)NC(=O)OCc1ccccc1)C(=O)NC(C=O)Cc1ccc(F)cc1 (mixture of isomers),> 1.26
8,CC(C)C[C@H](NC(=O)[C@H](Cc1ccc(F)cc1)NC(=O)OCc1ccccc1)C(=O)NC(C=O)Cc1cncs1 (mixture of isomers),> 50.1
9,CC(C)C[C@H](NC(=O)[C@H](Cc1ccc(F)cc1)NC(=O)OCc1ccccc1)C(=O)NC(C=O)Cc1ccncc1 (mixture of isomers),> 5.01
10,CC(C)C[C@H](NC(=O)[C@H](Cc1ccc(F)cc1)NC(=O)OCc1ccccc1)C(=O)NC(C=O)Cc1ccccc1F (mixture of isomers),0.398
11,CC(C)C[C@H](NC(=O)[C@H](Cc1ccc(F)cc1)NC(=O)OCc1ccccc1)C(=O)NC(C=O)Cc1cccc(F)c1 (mixture of isomers),0.794
12,CC(C)C[C@H](NC(=O)[C@H](Cc1ccc(F)cc1)NC(=O)OCc1ccccc1)C(=O)NC(C=O)Cc1c[nH]cn1 (mixture of isomers),25.1
13,CC(C)C[C@H](NC(=O)[C@H](Cc1ccc(F)cc1)NC(=O)OCc1ccccc1)C(=O)NC(C=O)C[C@@H]1CCNC1=O (mixture of isomers),3.16

# Target: Replicase polyprotein 1ab (Severe acute respiratory syndrome coronavirus 2) (UniProt P0DTD1)
# Assay: Binding affinity to SARS-CoV-2 3CL protease assessed as monophasic dissociation rate by measuring half life by jump dilution assay
# Details: not given
row,Structure (SMILES),T1/2 [min]
1,CSCC[C@@H](C=O)NC(=O)[C@H](CC(C)C)NC(=O)[C@H](Cc1ccc(F)cc1)NC(=O)OCc1ccccc1 (Cbz-[Phe(4-F)]-Leu-Met-aldehyde),< 12
2,CC(C)C[C@H](NC(=O)[C@H](Cc1ccc(F)cc1)NC(=O)OCc1ccccc1)C(=O)NC(C=O)CCF (mixture of isomers),< 12
3,CC(C)C[C@H](NC(=O)[C@H](Cc1ccc(F)cc1)NC(=O)OCc1ccccc1)C(=O)NC(C=O)CC(F)F (mixture of isomers),< 12
4,CC(C)C[C@H](NC(=O)[C@H](Cc1ccc(F)cc1)NC(=O)OCc1ccccc1)C(=O)NC(C=O)Cc1ccccn1 (mixture of isomers),18
5,CC(C)C[C@H](NC(=O)[C@H](Cc1ccc(F)cc1)NC(=O)OCc1ccccc1)C(=O)NC(C=O)Cc1ccc(F)cc1 (mixture of isomers),< 12
6,CC(C)C[C@H](NC(=O)[C@H](Cc1ccc(F)cc1)NC(=O)OCc1ccccc1)C(=O)NC(C=O)Cc1cccc(F)c1 (mixture of isomers),< 12
7,CC(C)C[C@H](NC(=O)[C@H](Cc1ccc(F)cc1)NC(=O)OCc1ccccc1)C(=O)NC(C=O)Cc1c[nH]cn1 (mixture of isomers),< 12

# Target: Replicase polyprotein 1ab (Severe acute respiratory syndrome coronavirus 2) (UniProt P0DTD1)
# Assay: Binding affinity to SARS-CoV-2 3CL protease assessed as biphasic dissociation rate by measuring half life by jump dilution assay
# Details: not given
row,Structure (SMILES),T1/2 [min]
1,CC(C)C[C@H](NC(=O)[C@H](Cc1ccc(F)cc1)NC(=O)OCc1ccccc1)C(=O)NC(C=O)Cc1ccccc1F (mixture of isomers),414
2,CC(C)C[C@H](NC(=O)[C@H](Cc1ccc(F)cc1)NC(=O)OCc1ccccc1)C(=O)NC(C=O)C[C@@H]1CCNC1=O (mixture of isomers),840

# System: not listed separately
# Assay: Permeability of compound in MDCK cells
# Format: ADME, cell-based, Canis lupus familiaris
# Details: dog, read-out: permeability
row,Structure (SMILES),Papp [nm/s]
1,CC(C)C[C@H](NC(=O)[C@H](Cc1ccc(F)cc1)NC(=O)OCc1ccccc1)C(=O)NC(C=O)Cc1ccccc1F (mixture of isomers),52.7
2,CC(C)C[C@H](NC(=O)[C@H](Cc1ccc(F)cc1)NC(=O)OCc1ccccc1)C(=O)NC(C=O)C[C@@H]1CCNC1=O (mixture of isomers),16.2

# System: SARS-CoV-2
# Assay: microbe, parasite or virus in culture
# Details: Severe acute respiratory syndrome coronavirus 2, Vero, read-out: pEC50 (converted)
# Description: Antiviral activity against SARS-CoV-2 infected in african green monkey Vero cells assessed as virus-induced cell death
row,Structure (SMILES),EC50 [µM]
1,CSCC[C@@H](C=O)NC(=O)[C@H](CC(C)C)NC(=O)[C@H](Cc1ccc(F)cc1)NC(=O)OCc1ccccc1 (Cbz-[Phe(4-F)]-Leu-Met-aldehyde),1.26
2,CC(C)C[C@H](NC(=O)[C@H](Cc1ccc(F)cc1)NC(=O)OCc1ccccc1)C(=O)NC(C=O)CCF (mixture of isomers),1
3,CC(C)C[C@H](NC(=O)[C@H](Cc1ccc(F)cc1)NC(=O)OCc1ccccc1)C(=O)NC(C=O)CC(F)F (mixture of isomers),1
4,CC(C)C[C@H](NC(=O)[C@H](Cc1ccc(F)cc1)NC(=O)OCc1ccccc1)C(=O)NC(C=O)CC(F)(F)F (mixture of isomers),0.631
5,CC(C)C[C@H](NC(=O)[C@H](Cc1ccc(F)cc1)NC(=O)OCc1ccccc1)C(=O)NC(C=O)Cc1cccnc1 (mixture of isomers),2
6,CC(C)C[C@H](NC(=O)[C@H](Cc1ccc(F)cc1)NC(=O)OCc1ccccc1)C(=O)NC(C=O)Cc1ccc(F)cc1 (mixture of isomers),2
7,CC(C)C[C@H](NC(=O)[C@H](Cc1ccc(F)cc1)NC(=O)OCc1ccccc1)C(=O)NC(C=O)Cc1ccncc1 (mixture of isomers),0.631
8,CC(C)C[C@H](NC(=O)[C@H](Cc1ccc(F)cc1)NC(=O)OCc1ccccc1)C(=O)NC(C=O)Cc1ccccc1F (mixture of isomers),1.58
9,CC(C)C[C@H](NC(=O)[C@H](Cc1ccc(F)cc1)NC(=O)OCc1ccccc1)C(=O)NC(C=O)Cc1cccc(F)c1 (mixture of isomers),2.51
10,CC(C)C[C@H](NC(=O)[C@H](Cc1ccc(F)cc1)NC(=O)OCc1ccccc1)C(=O)NC(C=O)Cc1c[nH]cn1 (mixture of isomers),3.98
11,CC(C)C[C@H](NC(=O)[C@H](Cc1ccc(F)cc1)NC(=O)OCc1ccccc1)C(=O)NC(C=O)C[C@@H]1CCNC1=O (mixture of isomers),1

# Target: Replicase polyprotein 1ab (Severe acute respiratory syndrome coronavirus 2, UniProt P0DTD1)
# Assay: Inhibition of SARS-CoV-2 3CL protease by FRET assay
# Details: not given
row,Structure (SMILES),IC50 [µM]
1,CSCC[C@@H](C=O)NC(=O)[C@H](CC(C)C)NC(=O)[C@H](Cc1ccc(F)cc1)NC(=O)OCc1ccccc1 (Cbz-[Phe(4-F)]-Leu-Met-aldehyde),0.00631
2,CC(C)C[C@H](NC(=O)[C@H](Cc1ccc(F)cc1)NC(=O)OCc1ccccc1)C(=O)NC(C=O)CCF (mixture of isomers),0.631
3,CC(C)C[C@H](NC(=O)[C@H](Cc1ccc(F)cc1)NC(=O)OCc1ccccc1)C(=O)NC(C=O)CC(F)F (mixture of isomers),1
4,CC(C)C[C@H](NC(=O)[C@H](Cc1ccc(F)cc1)NC(=O)OCc1ccccc1)C(=O)NC(C=O)Cc1ccccn1 (mixture of isomers),0.0126
5,CC(C)C[C@H](NC(=O)[C@H](Cc1ccc(F)cc1)NC(=O)OCc1ccccc1)C(=O)NC(C=O)CC(F)(F)F (mixture of isomers),> 1
6,CC(C)C[C@H](NC(=O)[C@H](Cc1ccc(F)cc1)NC(=O)OCc1ccccc1)C(=O)NC(C=O)Cc1cccnc1 (mixture of isomers),> 1
7,CC(C)C[C@H](NC(=O)[C@H](Cc1ccc(F)cc1)NC(=O)OCc1ccccc1)C(=O)NC(C=O)Cc1ccc(F)cc1 (mixture of isomers),0.794
8,CC(C)C[C@H](NC(=O)[C@H](Cc1ccc(F)cc1)NC(=O)OCc1ccccc1)C(=O)NC(C=O)Cc1cncs1 (mixture of isomers),> 1
9,CC(C)C[C@H](NC(=O)[C@H](Cc1ccc(F)cc1)NC(=O)OCc1ccccc1)C(=O)NC(C=O)Cc1ccncc1 (mixture of isomers),> 1
10,CC(C)C[C@H](NC(=O)[C@H](Cc1ccc(F)cc1)NC(=O)OCc1ccccc1)C(=O)NC(C=O)Cc1ccccc1F (mixture of isomers),0.00316
11,CC(C)C[C@H](NC(=O)[C@H](Cc1ccc(F)cc1)NC(=O)OCc1ccccc1)C(=O)NC(C=O)Cc1cccc(F)c1 (mixture of isomers),0.631
12,CC(C)C[C@H](NC(=O)[C@H](Cc1ccc(F)cc1)NC(=O)OCc1ccccc1)C(=O)NC(C=O)Cc1c[nH]cn1 (mixture of isomers),0.0158
13,CC(C)C[C@H](NC(=O)[C@H](Cc1ccc(F)cc1)NC(=O)OCc1ccccc1)C(=O)NC(C=O)C[C@@H]1CCNC1=O (mixture of isomers),0.000398

# System: not listed separately
# Assay: Cytotoxicity against human MRC5 cells infected with […] inhibition of cell growth
# Format: toxicity, cell-based
# Details: not given
row,Structure (SMILES),CC50 [µM]
1,CSCC[C@@H](C=O)NC(=O)[C@H](CC(C)C)NC(=O)[C@H](Cc1ccc(F)cc1)NC(=O)OCc1ccccc1 (Cbz-[Phe(4-F)]-Leu-Met-aldehyde),3.98
2,CC(C)C[C@H](NC(=O)[C@H](Cc1ccc(F)cc1)NC(=O)OCc1ccccc1)C(=O)NC(C=O)CCF (mixture of isomers),2
3,CC(C)C[C@H](NC(=O)[C@H](Cc1ccc(F)cc1)NC(=O)OCc1ccccc1)C(=O)NC(C=O)CC(F)F (mixture of isomers),1.58
4,CC(C)C[C@H](NC(=O)[C@H](Cc1ccc(F)cc1)NC(=O)OCc1ccccc1)C(=O)NC(C=O)Cc1ccccn1 (mixture of isomers),10
5,CC(C)C[C@H](NC(=O)[C@H](Cc1ccc(F)cc1)NC(=O)OCc1ccccc1)C(=O)NC(C=O)CC(F)(F)F (mixture of isomers),1.26
6,CC(C)C[C@H](NC(=O)[C@H](Cc1ccc(F)cc1)NC(=O)OCc1ccccc1)C(=O)NC(C=O)Cc1cccnc1 (mixture of isomers),10
7,CC(C)C[C@H](NC(=O)[C@H](Cc1ccc(F)cc1)NC(=O)OCc1ccccc1)C(=O)NC(C=O)Cc1ccc(F)cc1 (mixture of isomers),1.26
8,CC(C)C[C@H](NC(=O)[C@H](Cc1ccc(F)cc1)NC(=O)OCc1ccccc1)C(=O)NC(C=O)Cc1cncs1 (mixture of isomers),2
9,CC(C)C[C@H](NC(=O)[C@H](Cc1ccc(F)cc1)NC(=O)OCc1ccccc1)C(=O)NC(C=O)Cc1ccncc1 (mixture of isomers),5.01
10,CC(C)C[C@H](NC(=O)[C@H](Cc1ccc(F)cc1)NC(=O)OCc1ccccc1)C(=O)NC(C=O)Cc1ccccc1F (mixture of isomers),1.26
11,CC(C)C[C@H](NC(=O)[C@H](Cc1ccc(F)cc1)NC(=O)OCc1ccccc1)C(=O)NC(C=O)Cc1cccc(F)c1 (mixture of isomers),0.794
12,CC(C)C[C@H](NC(=O)[C@H](Cc1ccc(F)cc1)NC(=O)OCc1ccccc1)C(=O)NC(C=O)Cc1c[nH]cn1 (mixture of isomers),> 50.1
13,CC(C)C[C@H](NC(=O)[C@H](Cc1ccc(F)cc1)NC(=O)OCc1ccccc1)C(=O)NC(C=O)C[C@@H]1CCNC1=O (mixture of isomers),> 50.1
